Assay results: ChEMBL document CHEMBL1145858, “Synthesis and structure-activity studies of novel orally active non-terpenoic 2,3-oxidosqualene cyclase inhibitors” (J Med Chem, 2003)

How the values were obtained:
Cricetinae gen. sp. [1] = test: […] effect on total plasma cholesterol(TC) level in fat-fed hamsters treated for 10 days at 200 umol/kg/day; assay type: functional, Cricetulus griseus
Cricetinae gen. sp. [2] = test: […] effect on LDL cholesterol (LDL-C) level in fat-fed hamsters treated for 10 days at 200 umol/kg/day; assay type: functional, Cricetulus griseus
Lanosterol synthase [3] = target: T1, Lanosterol synthase (Homo sapiens, UniProt P48449)
T1 sequence (P48449 whole entry): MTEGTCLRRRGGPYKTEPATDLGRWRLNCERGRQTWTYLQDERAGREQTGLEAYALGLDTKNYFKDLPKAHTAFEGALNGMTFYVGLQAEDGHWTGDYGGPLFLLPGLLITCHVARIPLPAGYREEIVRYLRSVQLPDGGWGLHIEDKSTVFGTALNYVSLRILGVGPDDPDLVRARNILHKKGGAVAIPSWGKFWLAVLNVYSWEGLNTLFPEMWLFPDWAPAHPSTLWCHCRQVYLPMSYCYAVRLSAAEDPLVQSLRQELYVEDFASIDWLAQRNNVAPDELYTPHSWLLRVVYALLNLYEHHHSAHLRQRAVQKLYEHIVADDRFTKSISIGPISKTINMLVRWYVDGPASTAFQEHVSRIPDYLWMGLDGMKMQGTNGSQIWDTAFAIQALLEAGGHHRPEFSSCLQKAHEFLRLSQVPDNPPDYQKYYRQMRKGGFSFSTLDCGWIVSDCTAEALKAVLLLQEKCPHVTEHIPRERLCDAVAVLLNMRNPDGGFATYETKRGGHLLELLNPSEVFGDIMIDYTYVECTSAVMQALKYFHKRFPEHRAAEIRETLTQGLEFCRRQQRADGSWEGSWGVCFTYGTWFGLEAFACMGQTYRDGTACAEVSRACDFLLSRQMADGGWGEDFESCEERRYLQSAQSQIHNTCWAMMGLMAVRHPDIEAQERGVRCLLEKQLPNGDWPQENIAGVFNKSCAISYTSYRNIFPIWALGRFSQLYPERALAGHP

[4] = target: T2, Lanosterol synthase (Homo sapiens) (UniProt P48449); details: at 100 nM
T2 sequence (whole entry): T1 sequence (P48449 whole entry)

Lanosterol synthase [5] = target: T1, Lanosterol synthase; test: In vitro inhibition of human 2,3-oxidosqualene cyclase.

Compound	LDL-C (Cricetinae gen. sp. [2]) [%]	IC50 (Lanosterol synthase [3]) [nM]	further results
C=CCN(C)CCCCCCOc1ccc(C(=O)c2ccc(Br)cc2)cc1.O=C(O)/C=C/C(=O)O	-25	–	TC (Cricetinae gen. sp. [1]): -27%; pKa (physchem): 8.18
C=CCN(C)CCCCCCOc1ccc(C(=O)c2ccc(Br)cc2)c(O)c1	–	6.3	–
C=CCN(C)CCCCCCOc1ccc(C(=O)c2ccc(Br)cc2)c(OC)c1	–	4.6	–
C=CCN(C)CCCCCCOc1ccc(C(=O)c2ccc(F)cc2)cc1.Cl	-24	6.7	TC (Cricetinae gen. sp. [1]): -40%
C=CCN(C)CCCCCCOc1ccc(-c2nsc3cc(Br)ccc23)cc1	–	–	inhibition [4]: 5%
CN(CCCO)CCCCCCOc1ccc(C(=O)c2ccc(Br)cc2)cc1	–	15.7	pKa (physchem): 9.05
C=CCN(C)CCCCCCOc1ccc2c(c1)CCN=C2c1ccc(Br)cc1	–	7.9	–
C=CCN(C)CCCCCCOc1ccc2c(-c3ccc(Br)cc3)noc2c1	–	–	inhibition [4]: 21%
CN(CCCCCCOc1ccc(C(=O)c2ccc(Br)cc2)cc1)CC1CC1	–	–	pKa (physchem): 9.37
C=CCN(C)CCCCCCOc1ccc(C(=O)c2ccc(Br)cc2)cn1	–	8.7	–
C=CCN(C)CCCCCCOc1ccc(C(=O)c2ccc(Br)cc2)c(SC)c1	–	6.2	–
CN(CCCCCCOc1ccc(C(=O)c2ccc(Br)cc2)cc1)C1CC1	–	35.3	pKa (physchem): 7.48
C=CCN(C)CCCCCCOc1ccc(C(=O)c2ccc([N+](=O)[O-])cc2)cc1	–	–	IC50 (Lanosterol synthase [5]): 1.9 nM
C=CCN(C)CCCCCCOc1ccc2c(-c3ccc(Br)cc3)nccc2c1.Cl	-14	–	–
C=CCN(C)CCCCCCOc1ccc2c(c1)CON=C2c1ccc(Br)cc1.O=C(O)/C=C/C(=O)O	-3	–	–
C=CCN(C)CCCCCCOc1ccc2c(c1)S(=O)(=O)N=C2c1ccc(Br)cc1	–	7.8	–
C=CCN(C)CCCCCCOc1ccc2c(-c3ccc(Br)cc3)csc2c1	–	5.6	–
Br.C=CCN(C)CCCCCCOc1ccc(C(=O)c2ccccc2)cc1	-12	22.5	–
C=CCN(C)CCCCCCOc1ccc2c(c1)OCC=C2c1ccc(Br)cc1	–	11.4	–
C=CCN(C)CCCCCCOc1ccc(C(=O)c2ccc(Br)cc2)c(NC)c1	–	4.1	–
C=CCN(C)CCCCCCOc1ccc2c(-c3ccc(Br)cc3)coc2c1	–	–	inhibition [4]: 14%
C=CCN(C)CCCCCCOc1ccc2c(-c3ccc(Br)cc3)nsc2c1.O=C(O)/C=C/C(=O)O	-33	–	TC (Cricetinae gen. sp. [1]): -36%
C=CCN(C)CCCCCCOc1ccc(C(=O)c2ccc(Br)cc2)c(F)c1.O=C(O)/C=C/C(=O)O	-27	–	TC (Cricetinae gen. sp. [1]): -41%
